From PubChem BioAssay AID258 (DTP/NCI, 2004)
“And” between values parts separate entries of the source, which are not always exact repeats. Equal values may be shown once. Inconclusive results and toxic doses are left out. Starred links: 1 amine or outer side, 2 acyl side, 3 side chain; linkers in the order of their positions; H or OH if unused. Positions of bridges follow the written chain, without caps; N, C: chain ends. Non-standard residues stand in square brackets, D forms with d. Residues, ends and D or L forms follow the SMILES beside them. Chains are numbered I, II in the order given. Actinocin(9to1) = Cc1c2oc3c(C)ccc(C(=O)[*:1])c3nc-2c(C(=O)[*:2])c(N)c1=O; aThr = C[C@H](O)[C@H](N)C(=O)O; NMeV = CN[C@H](C(=O)O)C(C)C; Sar = CNCC(=O)O

Test system: CD2F1 mice, L1210 leukemia sc, survival T/C
Assay: NCI In Vivo Anticancer Drug Screen. Data for tumor model L1210 Leukemia (subcutaneous) in CD2F1 (CDF1) mice
Conditions: endpoint: median survival time, higher = longer survival
In short: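 Compound given to mice bearing transplantable tumor. Survival or tumor size then recorded. Result expressed relative to vehicle-dosed control group as T/C.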

[1] = dose: 25.0 mg/kg/injection, schedule: Q01DX009 (ip), vehicle: saline
[2] = dose: 50.0 mg/kg/injection, schedule: Q01DX009 (ip), vehicle: saline
[3] = dose: 100.0 mg/kg/injection, schedule: Q01DX009 (ip), vehicle: saline
[4] = dose: 200.0 mg/kg/injection, schedule: Q01DX009 (ip), vehicle: saline

## Cc1c2oc3c(C)ccc(C(=O)N[C@@H]4C(=O)N[C@H](C(C)C)C(=O)N5CCC[C@H]5C(=O)N(C)CC(=O)N(C)[C@@H](C(C)C)C(=O)O[C@H]4C)c3nc-2c(C(=O)N[C@@H]2C(=O)N[C@H](C(C)C)C(=O)N3CCC[C@H]3C(=O)N(C)CC(=O)N(C)[C@@H](C(C)C)C(=O)O[C@H]2C)c(N)c1=O (I: [aThr][dV]P[Sar][NMeV] / II: [aThr][dV]P[Sar][NMeV]; ester I:1-I:C, II:1-II:C; linker I:N-II:N via Actinocin(9to1))
dose: 0.05 mg/kg/injection, schedule: Q01DX009 (sc), vehicle: saline
  T/C: 101 % of control
dose: 0.05 mg/kg/injection, schedule: Q01DX Z (sc), vehicle: other
  T/C: 108 % of control and 100 % of control
dose: 0.05 mg/kg/injection, schedule: Q01DX Z (sc), vehicle: saline
  T/C: 100 % of control
dose: 0.08 mg/kg/injection, schedule: Q01DX Z (sc), vehicle: other
  T/C: 112 % of control
dose: 0.08 mg/kg/injection, schedule: Q07DX Z (sc), vehicle: other
  T/C: 100 % of control
dose: 0.09 mg/kg/injection, schedule: Q01DX Z (sc), vehicle: other
  T/C: 116 % of control
dose: 0.1 mg/kg/injection, schedule: Q01DX009 (sc), vehicle: saline
  T/C: 113 % of control
dose: 0.13 mg/kg/injection, schedule: Q01DX009 (sc), vehicle: saline
  T/C: 122 % of control
dose: 0.14 mg/kg/injection, schedule: Q07DX Z (sc), vehicle: other
  T/C: 112 % of control
dose: 0.15 mg/kg/injection, schedule: Q01DX009 (sc), vehicle: saline
  T/C: 120 % of control
dose: 0.2 mg/kg/injection, schedule: Q01DX009 (sc), vehicle: saline
  T/C: 105 % of control and 113 % of control
dose: 0.23 mg/kg/injection, schedule: Q07DX Z (sc), vehicle: other
  T/C: 112 % of control
dose: 0.25 mg/kg/injection, schedule: Q01DX009 (sc), vehicle: saline
  T/C: 93 % of control
dose: 0.3 mg/kg/injection, schedule: Q01DX009 (sc), vehicle: saline
  T/C: 95 % of control
dose: 0.39 mg/kg/injection, schedule: Q07DX Z (sc), vehicle: other
  T/C: 112 % of control
dose: 0.42 mg/kg/injection, schedule: Q01DX Z (sc), vehicle: other
  T/C: 116 % of control
dose: 0.7 mg/kg/injection, schedule: Q01DX Z (sc), vehicle: other
  T/C: 112 % of control
dose: 1.17 mg/kg/injection, schedule: Q01DX Z (sc), vehicle: other
  T/C: 100 % of control
dose: 12.0 micrograms/kg/injection, schedule: Q01DX009 (ip), vehicle: saline
  T/C: 101 % of control
dose: 12.0 micrograms/kg/injection, schedule: Q01DX009 (sc), vehicle: saline
  T/C: 101 % of control
dose: 25.0 micrograms/kg/injection, schedule: Q01DX009 (ip), vehicle: saline
  T/C: 102 % of control
dose: 25.0 micrograms/kg/injection, schedule: Q01DX009 (sc), vehicle: saline
  T/C: 100 % of control
dose: 50.0 micrograms/kg/injection, schedule: Q01DX009 (ip), vehicle: saline
  T/C: 98 % of control
dose: 50.0 micrograms/kg/injection, schedule: Q01DX009 (sc), vehicle: saline
  T/C: 101 % of control
dose: 100.0 micrograms/kg/injection, schedule: Q01DX009 (ip), vehicle: saline
  T/C: 113 % of control
dose: 100.0 micrograms/kg/injection, schedule: Q01DX009 (sc), vehicle: saline
  T/C: 103 % of control and 119 % of control
dose: 200.0 micrograms/kg/injection, schedule: Q01DX009 (ip), vehicle: saline
  T/C: 107 % of control
dose: 200.0 micrograms/kg/injection, schedule: Q01DX009 (sc), vehicle: saline
  T/C: 114 % of control and 118 % of control
dose: 400.0 micrograms/kg/injection, schedule: Q01DX009 (sc), vehicle: saline
  T/C: 112 % of control and 86 % of control

## C[n+]1c2ccccc2nc2c(N)cc(N)cc21
dose: 3.0 mg/kg/injection, schedule: Q01DX Z (ip), vehicle: water
  T/C: 100 % of control
dose: 5.0 mg/kg/injection, schedule: Q01DX Z (ip), vehicle: water
  T/C: 100 % of control
dose: 5.0 mg/kg/injection, schedule: Q01DX Z (sc), vehicle: water
  T/C: 100 % of control
dose: 8.4 mg/kg/injection, schedule: Q01DX Z (ip), vehicle: water
  T/C: 100 % of control
dose: 8.4 mg/kg/injection, schedule: Q01DX Z (sc), vehicle: water
  T/C: 100 % of control
dose: 14.0 mg/kg/injection, schedule: Q01DX Z (ip), vehicle: water
  T/C: 100 % of control
dose: 14.0 mg/kg/injection, schedule: Q01DX Z (sc), vehicle: water
  T/C: 100 % of control
dose: 23.0 mg/kg/injection, schedule: Q01DX Z (ip), vehicle: water
  T/C: 100 % of control
dose: 23.0 mg/kg/injection, schedule: Q01DX Z (sc), vehicle: water
  T/C: 111 % of control
dose: 39.0 mg/kg/injection, schedule: Q01DX Z (ip), vehicle: water
  T/C: 111 % of control
dose: 39.0 mg/kg/injection, schedule: Q01DX Z (sc), vehicle: water
  T/C: 111 % of control

## CNCCN=c1ccc2c3c1c(O)c1c(O)ccc(=O)c1c3[nH]n2CCNCCO
dose: 1.08 mg/kg/injection, schedule: Q01DX009 (ip), vehicle: water
  T/C: 117 % of control
dose: 3.0 mg/kg/injection, schedule: Q01DX009 (ip), vehicle: water
  T/C: 206 % of control
dose: 5.0 mg/kg/injection, schedule: Q01DX009 (ip), vehicle: water
  T/C: 124 % of control
dose: 8.3 mg/kg/injection, schedule: Q01DX009 (ip), vehicle: water
  T/C: 89 % of control

## CN(CCN(C)C(=O)CCOS(C)(=O)=O)C(=O)CCOS(C)(=O)=O
[1]
  T/C: 106 % of control and 107 % of control
[2]
  T/C: 123 % of control
[3]
  T/C: 171 % of control
[4]
  T/C: 103 % of control and 94 % of control

## CC(=O)NNC(=O)c1ccccn1
dose: 12.5 mg/kg/injection, schedule: Q01DX009 (ip), vehicle: Klucel (hydroxypropylcellulose) (HPC)
  T/C: 102 % of control
dose: 25.0 mg/kg/injection, schedule: Q01DX009 (ip), vehicle: Klucel (hydroxypropylcellulose) (HPC)
  T/C: 102 % of control
[1]
  T/C: 102 % of control
dose: 25.0 mg/kg/injection, schedule: Q01DX009 (sc), vehicle: saline
  T/C: 98 % of control
dose: 50.0 mg/kg/injection, schedule: Q01DX009 (ip), vehicle: Klucel (hydroxypropylcellulose) (HPC)
  T/C: 105 % of control
[2]
  T/C: 104 % of control
dose: 50.0 mg/kg/injection, schedule: Q01DX009 (sc), vehicle: saline
  T/C: 105 % of control and 109 % of control
dose: 100.0 mg/kg/injection, schedule: Q01DX009 (ip), vehicle: Klucel (hydroxypropylcellulose) (HPC)
  T/C: 113 % of control
[3]
  T/C: 106 % of control
dose: 100.0 mg/kg/injection, schedule: Q01DX009 (sc), vehicle: saline
  T/C: 110 % of control and 113 % of control
dose: 200.0 mg/kg/injection, schedule: Q01DX009 (ip), vehicle: Klucel (hydroxypropylcellulose) (HPC)
  T/C: 112 % of control
[4]
  T/C: 114 % of control
dose: 200.0 mg/kg/injection, schedule: Q01DX009 (sc), vehicle: saline
  T/C: 111 % of control and 119 % of control

## CSc1nc2[nH]cnc(=S)c2[nH]1
dose: 23.0 mg/kg/injection, schedule: Q01DX Z (sc), vehicle: methylcellulose (MC)
  T/C: 90 % of control
dose: 39.0 mg/kg/injection, schedule: Q01DX Z (sc), vehicle: methylcellulose (MC)
  T/C: 100 % of control
dose: 65.0 mg/kg/injection, schedule: Q01DX Z (sc), vehicle: methylcellulose (MC)
  T/C: 100 % of control
dose: 108.0 mg/kg/injection, schedule: Q01DX Z (sc), vehicle: methylcellulose (MC)
  T/C: 100 % of control
dose: 180.0 mg/kg/injection, schedule: Q01DX Z (sc), vehicle: methylcellulose (MC)
  T/C: 100 % of control
dose: 300.0 mg/kg/injection, schedule: Q01DX Z (sc), vehicle: methylcellulose (MC)
  T/C: 100 % of control
